Measured values as given in patent US6964966B2, “Generation triple-targeting, chiral, broad-spectrum antimicrobial 7-substituted piperidino-quinolone carboxylic acid derivatives, their preparation, compositions and use as medicaments” (Wockhardt Limited, priority 2001, dated 2005).
Converted amounts (≈) assume the structure as drawn. Like-named read-outs stand apart in the source and are kept apart here.

Tests used:
[1] = system: Fluoroquinolone Sensitive Strains; assay: In-vitro antimicrobial test, MIC by two-fold serial agar dilution (NCCLS): fluoroquinolone sensitive strains (Table 17); format: cell-based
Method: (§1) The test method was in accordance with the standard NCCLS protocol (Methods for Dilution Antimicrobial Susceptibility Tests for Bacteria that grow Aerobicially, Approved Standards, M7-A5, Fifth Edition, January 2000).
(§2) The antibacterial activities (minimum inhibitory concentration: MIC, mcg/ml) were determined by using the two-fold serial agar dilution method recommended by NCCLS. The media used for preculture and main culture were Tryptic Soya broth (Difco) and Mueller Hinton medium (Difco), respectively. The Mueller Hinton agar was supplemented with 5% sheep blood for streptococci. Overnight cultures were diluted with buffered saline (pH 7.2) to the final cell density of 5×10^6-10^7 CFU/ml, and each bacterial suspension was applied with a replicator (Denley's multipoint inoculator, UK) onto a series of Mueller-Hinton agar plates containing antibacterial agents at various concentrations. Final inoculum was approximately 10^4 CFU/spot. The plates were incubated for 18 hrs at 37° C. The MIC was defined as the lowest concentration of an antibacterial agent that inhibits the development of visible microbial growth on agar.

J 744 (mouse macrophage) = assay: Cytotoxicity test (Alamar blue), J 744 cells (Table 23); format: cell-based; details: minimum drug concentration inhibiting Alamar blue color change; 3 hrs drug exposure, then 96 hrs incubation; J 744 mouse macrophage cells
Method: (§3) Compounds were evaluated for their cytotoxic potential against two […] viz. […] Freshly grown cells were distributed in microtiter plates at a cell density of 10^5-10^6 cells/well and allowed to adhere and form monolayer by incubating the microtiter plate at 37° C. for 24 hrs. […] Following 3 hrs. of drug exposure, cells were washed with D-MEM and incubated further for 96 hrs. Cytotoxic effects of drugs were monitored through daily microscopic observation and by ascertaining the metabolic status through redox indicator Alamar blue. Healthy actively metabolising cells bring about colour change of Alamar blue from blue to pink within an overnight incubation. Cytotoxic drugs inhibit this reaction resulting into blue coloured wells. Minimum drug concentration inhibiting Alamar blue color change i.e. resulting into blue coloured wells for a given drug is considered cytotoxic concentration.

[2] = system: V79 (Chinese Hamster Lung); assay: Cytotoxicity test (Alamar blue), V79 cells (Table 23); format: cell-based; details: minimum drug concentration inhibiting Alamar blue color change, 3 hrs drug exposure, then 96 hrs incubation
Method: as §3

[3] = system: Fluoroquinolone-Resistant Strains; assay: In-vitro antimicrobial test, MIC by agar dilution (NCCLS): fluoroquinolone-resistant strains (Table 18); format: cell-based
Method: as §1, §2

[4] = Phototoxicity, oral dose and UVA exposure, mice; details: UVA 4 hours for 4 consecutive days, dose causing ear erythema and oedema
Method: The stock solutions for different doses were prepared freshly on the day of experimentation. Appropriate concentration of each dose was chosen to give a constant dosage volume of 0.3-0.4 ml/20 g body weight of mouse. The treated mice were exposed to UVA light source immediately after dosing for 4 hours and for 4 consecutive days. The mean light intensity in the UVA chamber was adjusted to 0.9-1.2 mW/cm^2. The total irradiation dose was approximately 18 Joules/cm^2/day. A phototoxic dose is one which causes ear erythema and oeadema.

[5] = Escherichia coli, ATCC25922, E. coli ATCC 25922, read-out: MIC, E. coli ATCC 25922
[6] = Staphylococcus aureus, ATCC 25923 / MSSA, MSSA ATCC 25923, read-out: MIC, MSSA ATCC 25923
[7] = Streptococcus pneumoniae, ATCC49619, S. pneumoniae ATCC 49619, read-out: MIC, S. pneumoniae ATCC 49619

Row | MIC [1, 5] [µg/mL] | MIC [1, 6] [µg/mL] | MIC [1, 7] [µg/mL] | Compound | Cytotoxic concentration, J 744 Macrophage (J 744 (mouse macrophage)) [µg/mL] | also measured
1 | – | – | – | CCc1c(N2CCC(O)C(C)C2)c(F)cc2c(=O)c(C(=O)O)cn(C3CC3)c12 (mixture of isomers) [Compound 100, cis/trans-1-Cyclopropyl-6-fluoro-8-ethyl-7-(4-hydroxy-3-methyl-1-piperidinyl)-1,4-dihydro-4-oxo-quinoline-3-carboxylic acid] | – | MIC, E. coli ATCC 25922 [1]: 0.8 µg/mL; MIC, MSSA ATCC 25923 [1]: 0.1 µg/mL; MIC, S. pneumoniae ATCC 49619 [1]: 0.8 µg/mL
2 | – | – | – | Cc1c(N2CCC(N)C(C)(C)C2)c(F)cc2c(=O)c(C(=O)O)cn(C3CC3)c12 (racemic) [Compound 91, (±)1-Cyclopropyl-6-fluoro-1,4-dihydro-8-methyl-7-(4-amino-3,3-dimethyl-1-piperidinyl)-4-oxo-quinoline-3-carboxylic acid] | 1000 | Cytotoxic concentration, V 79 CHL [2]: 750 µg/mL
3 | – | – | – | Cc1c(N2CCC(N)C(C)(C)C2)c(F)cc2c(=O)c(C(=O)O)cn(C3CC3)c12 (racemic) [Compound 92, (±)-1-Cyclopropyl-6-fluoro-1,4-dihydro-8-methyl-7-(4-amino-3,3-dimethyl-1-piperidinyl)-4-oxo-quinoline-3-carboxylic acid] | >1000 | MIC, E. coli ATCC 25922 [1]: 0.05 µg/mL (≈ 0.129 µM); MIC, MSSA ATCC 25923 [1]: 0.025 µg/mL (≈ 0.0645 µM); Cytotoxic concentration, V 79 CHL [2]: >1000 µg/mL
4 | – | – | – | CC[C@@H]1CN(c2c(F)cc3c(=O)c(C(=O)O)cn(C4CC4)c3c2C)CC[C@H]1O (relative stereo) [Compound 88, cis/trans-1-Cyclopropyl-6-fluoro-8-methyl-7-(4-hydroxy-3-ethyl-1-piperidinyl)-1,4-dihydro-4-oxo-quinoline-3-carboxylic acid] | – | MIC, E. coli ATCC 25922 [1]: 0.4 µg/mL (≈ 1.03 µM); MIC, E. faecalis ATCC 29212 ([1]; E. faecalis ATCC 29212): 0.2 µg/mL (≈ 0.515 µM); MIC, MSSA ATCC 25923 [1]: 0.012 µg/mL (≈ 0.0309 µM); MIC, P. aeruginosa 27853 ([1]; P. aeruginosa 27853): 12.5 µg/mL (≈ 32.2 µM); MIC, S. pneumoniae ATCC 49619 [1]: 0.1 µg/mL (≈ 0.257 µM); MIC, S. sanguis ATCC 10556 ([1]; S. sanguis ATCC 10556 (Viridans Streptococci)): 0.2 µg/mL (≈ 0.515 µM); MIC, Cipro^R S. mitis 938 ([3]; Cipro^R S. mitis 938): 3.12 µg/mL (≈ 8.03 µM); MIC, Cipro^R S. sanguis 941 ([3]; Cipro^R S. sanguis 941): 3.12 µg/mL (≈ 8.03 µM); MIC, FQ^R S. pneumoniae 718 ([3]; FQ^R S. pneumoniae 718): 3.12 µg/mL (≈ 8.03 µM); MIC, MRSA 032 ([3]; MRSA 032): 0.8 µg/mL (≈ 2.06 µM)
5 | – | – | – | Cc1c(N2CC[C@@H](N)[C@H](C)C2)c(F)cc2c(=O)c(C(=O)O)cn(C3CC3)c12 (relative stereo) [Compound 89, trans-1-Cyclopropyl-6-fluoro-1,4-dihydro-8-methyl-7-(4-amino-3-methyl-1-piperidinyl)-4-oxo-quinoline-3-carboxylic acid] | 1000 | Cytotoxic concentration, V 79 CHL [2]: 250 µg/mL
6 | – | – | – | Cc1c(N2CC[C@H](N)[C@H](C)C2)c(F)cc2c(=O)c(C(=O)O)cn(C3CC3)c12 (relative stereo) [Compound 90, cis-1-Cyclopropyl-6-fluoro-1,4-dihydro-8-methyl-7-(4-amino-3-methyl-1-piperidinyl)-4-oxo-quinoline-3-carboxylic acid] | 1000 | Cytotoxic concentration, V 79 CHL [2]: 125 µg/mL
7 | – | – | – | Cc1c(N2CC[C@H](N)[C@H](C)C2)c(F)c(N)c2c(=O)c(C(=O)O)cn(C3CC3)c12 (relative stereo) [Compound 111, cis-1-5-Amino-1-cyclopropyl-6-fluoro-1,4-dihydro-8-methyl-7-(4-amino-3-methyl-1-piperidinyl)-4-oxo-quinoline-3-carboxylic acid] | – | MIC, E. coli ATCC 25922 [1]: 1.56 µg/mL (≈ 4.02 µM); MIC, MSSA ATCC 25923 [1]: 0.8 µg/mL (≈ 2.06 µM)
8 | – | – | – | Cc1c(N2CCC(N)C(C)(C)C2)c(F)cc2c(=O)c(C(=O)O)cn(C3CC3)c12 (single isomer, unassigned; (-)) [Compound 93, (−)-1-Cyclopropyl-6-fluoro-1,4-dihydro-8-methyl-7-(4-amino-3,3-dimethyl-1-piperidinyl)-4-oxo-quinoline-3-carboxylic acid] | 1000 | MIC ([1]; Pseudomonas aeruginosa, P. aeruginosa 27853, read-out: MIC, P. aeruginosa 27853): 1.56 µg/mL (≈ 4.03 µM); MIC ([3]; Staphylococcus aureus, MRSA, MRSA 032, read-out: MIC, MRSA 032): 0.4 µg/mL (≈ 1.03 µM); MIC ([3]; Streptococcus mitis, Cipro^R S. mitis 938, read-out: MIC, Cipro^R S. mitis 938): 0.8 µg/mL (≈ 2.06 µM); MIC ([3]; Streptococcus pneumoniae, FQ^R S. pneumoniae 718, read-out: MIC, FQ^R S. pneumoniae 718): 0.4 µg/mL (≈ 1.03 µM); Cytotoxic concentration, V 79 CHL [2]: 250 µg/mL
9 | 0.4 (≈ 0.841 µM) | 0.4 (≈ 0.841 µM) | 1.56 (≈ 3.28 µM) | COc1c(N2CCC(N)C(C)(C)C2)c(F)cc2c(=O)c(C(=O)O)cn(-c3ccc(F)cc3F)c12 (stereo not drawn) [Compound 17, 1-(2,4-Difluorophenyl)-6-fluoro-1,4-dihydro-8-methoxy-7-(4-amino-3,3-dimethyl-1-piperidinyl)-4-oxo-quinoline-3-carboxylic acid] | – | –
10 | 6.25 (≈ 14.5 µM) | 1.56 (≈ 3.62 µM) | > 6.25 | CCNC1C(C)CN(c2c(F)cc3c(=O)c(C(=O)O)cn(C4CC4)c3c2OC)CC1C (stereo not drawn) [Compound 39, 1-Cyclopropyl-6-fluoro-1,4-dihydro-8-methoxy-7-(4-ethylamino-3,5-dimethyl-1-piperidinyl)-4-oxo-quinoline-3-carboxylic acid] | – | –
11 | 0.4 (≈ 0.869 µM) | 0.05 (≈ 0.109 µM) | 0.2 (≈ 0.434 µM) | COc1c(N2CCC(NC(C)=O)C(C)(C)C2)c(F)c(N)c2c(=O)c(C(=O)O)cn(C3CC3)c12 (stereo not drawn) [Compound 61, 5-Amino-1-cyclopropyl-6-fluoro-1,4-dihydro-8-methoxy-7-(4-acetylamino-3,3-dimethyl-1-piperidinyl)-4-oxo-quinoline-3-carboxylic acid] | – | –
12 | 0.2 (≈ 0.448 µM) | 0.05 (≈ 0.112 µM) | 0.2 (≈ 0.448 µM) | CCNC1CCN(c2c(F)c(N)c3c(=O)c(C(=O)O)cn(C4CC4)c3c2OC)CC1(C)C (stereo not drawn) [Compound 66, 5-Amino-1-cyclopropyl-6-fluoro-1,4-dihydro-8-methoxy-7-(4-ethylamino-3,3-dimethyl-1-piperidinyl)-4-oxo-quinoline-3-carboxylic acid] | – | –
13 | 0.05 (≈ 0.139 µM) | 0.1 (≈ 0.277 µM) | – | Cc1c(N2CCC(O)CC2)c(F)cc2c(=O)c(C(=O)O)cn(C3CC3)c12 [Compound 83, 1-Cyclopropyl-6-fluoro-8-methyl-7-(4-hydroxy-1-piperidinyl)-1,4-dihydro-4-oxo-quinoline-3-carboxylic acid] | – | –
14 | – | – | 0.05 (≈ 0.129 µM) | Cc1c(N2CCC(N)C(C)(C)C2)c(F)cc2c(=O)c(C(=O)O)cn(C3CC3)c12 (stereo not drawn) [Compound 94, 1-Cyclopropyl-6-fluoro-1,4-dihydro 8-methyl-7-(4-amino-3,3-dimethyl-1-piperidinyl)-4-oxo-quinoline-3-carboxylic acid] | – | –
15 | 0.4 (≈ 0.987 µM) | 0.025 (≈ 0.0617 µM) | 0.2 (≈ 0.493 µM) | COc1c(N2CCC(O)C(C)C2)c(F)c(N)c2c(=O)c(C(=O)O)cn(C3CC3)c12 (stereo not drawn) [Compound 116, 5-Amino-1-cyclopropyl-6-fluoro-1,4-dihydro-8-methoxy-7-(4-hydroxy-3-methyl-1-piperidinyl)-4-oxo-quinoline-3-carboxylic acid] | – | –
16 | 1.56 (≈ 3.72 µM) | 0.025 (≈ 0.0596 µM) | 0.4 (≈ 0.954 µM) | COc1c(N2CCC(O)C(C)(C)C2)c(F)c(N)c2c(=O)c(C(=O)O)cn(C3CC3)c12 (stereo not drawn) [Compound 125, 5-Amino-1-cyclopropyl-6-fluoro-1,4-dihydro-8-methoxy-7-(4-hydroxy-3,3-dimethyl-1-piperidinyl)-4-oxo-quinoline-3-carboxylic acid] | – | –
17 | 0.4 (≈ 0.954 µM) | < 0.006 | 0.1 (≈ 0.238 µM) | COc1c(N2CC(C)C(O)C(C)C2)c(F)c(N)c2c(=O)c(C(=O)O)cn(C3CC3)c12 (stereo not drawn) [Compound 127, 5-Amino-1-cyclopropyl-6-fluoro-1,4-dihydro-8-methoxy-7-(4-hydroxy-3,5-dimethyl-1-piperidinyl)-4-oxo-quinoline-3-carboxylic acid] | – | –
18 | – | – | – | N[C@@H]1[C@H]2CN(c3nc4c(cc3F)c(=O)c(C(=O)O)cn4-c3ccc(F)cc3F)C[C@@H]12 [Trovafloxacin, reference compound] | 500 | –
19 | – | – | – | C[C@@H]1CN(c2c(F)c(N)c3c(=O)c(C(=O)O)cn(C4CC4)c3c2F)C[C@H](C)N1 [sparfloxacin, reference compound] | – | phototoxic dose [4]: 25 mg/kg
